Experimental data: US20230174938A1, “METHODS AND COMPOSITIONS FOR GENERATING HUMAN ERYTHROID PROGENITOR CELLS” (Trailhead Biosystems Inc., priority 2021, published 2023)

How the values were obtained:
[1] = test system: erythroid progenitors from GATA1+ MEP cells; experiment: Factor criticality analysis (dynamic profile), stage 2 recipe; format: cell-based, human; set-up: unit not given here
Method: (§1) To assess the impact of the elimination of each validated factor identified for the stage 1 and 2 recipes as described in Example 1, dynamic profile analysis was used and compared the expression level of genes of interest in absence of each finalized factor while others are present.
In the stage 2 recipe, each of the five finalized factors was removed while the other four factors remained present and the expression levels of GATA1, HBA1, GYPA (CD235) and TFRC were assessed compared to the presence of all five factors. When EPO was removed, the values of GATA1 decreased from 1386 to 736, the values of HBA1 changed from 700 to 285, the values of GYPA decreased from 345 to 61 and the values of TFRC dropped from 2943 to 898. All changes represent a significant loss of expression of a desired gene.

[2] = test system: GATA1 bipotential progenitor (MEP progenitor) from human cord blood CD34+ cells; experiment: HD-DoE 12-factor experiment optimized for maximum expression of HBA1 (stage 2); format: cell-based; details: 12-factor model optimized for maximum HBA1 expression; 3 days after stage 1
Method: To engineer the stage 2 media, first CD34+ cells from human cord blood cells were cultured for 5 days in stage 1 media (Table 1), which converts hematopoietic stem cells to a GATA1 bipotential progenitor (MEP progenitor). This progenitor has the potential to differentiate to erythroid and megakaryocyte lineages. To further guide the differentiation of GATA1 bipotential progenitor, an additional HD-DoE experiment was performed. […] The basis of this was a 12-factor HD-DoE experiment with focus on differentiation of cells toward the erythroid lineage for an additional 3 days after termination of stage 1 treatment.
To test the effectors, 96 different combinations of effectors generated using Design-of-Experiments compression through D-optimality were robotically prepared. The effector combinations were prepared in a basal media and were subsequently added to the cells, which were then allowed to differentiate. Three days later RNA extraction was performed, and gene expression was obtained using quantitative PCR analysis. The data were normalized and modeled using partial least squares regression analysis to the effector design, resulting in the generation of gene-specific models, which after model tuning for maximal Q2 predictive power, provided explanation of the effectors ability to control the expression of individual genes, combinatorically, and individually. Solutions within the tested space could then be explored to address desirability.
This model was derived from initial testing of twelve factors including: HB-EGF, Optiferrin, SR1, knockout serum, ibuprofen, GM-CSF, holo-transferrin, EPO, eltrombopag, Neuregulin 1, THI0019 and AICAR.

[3] = test system: CD34+ population of cells isolated from cord blood; experiment: HD-DoE 8-factor experiment optimized for maximum expression of GATA1 (stage 1); format: cell-based, human; details: for factor contribution: 8-factor model optimized for maximum GATA1 expression, 3-day treatment
Method: The effector combinations were prepared in a basal media and were subsequently added to the cells, which were then allowed to differentiate. […] Solutions within the tested space could then be explored to address desirability.

[4] = test system: MEP progenitor from CD34+ HSCs; experiment: Factor criticality analysis (dynamic profile), stage 1 recipe; format: cell-based, human; set-up: unit not given here
Method: as §1
In the stage 1 recipe, each of the five finalized factors was removed while the other four factors remained present and the expression levels of GATA2, GATA1, CD36 and TFRC were assessed compared to the presence of all five factors.

[5] = test system: HBA expression; experiment: Refinement of stage 2 recipe: HBA expression modelling and cell number; format: cell-based, human; details: higher concentration: holo-transferrin 600 ug/mL, EPO 4 U/mL; or supplement added
Method: In order to refine the stage 2 recipe, more modelling experiments were conducted using the same factors as the stage 2 recipe but testing different concentrations of critical factors such as EPO and holo-transferrin. Additionally, because lipid inputs are critical for RBC differentiation, a commercial cholesterol supplement (Sigma) was tested.

[6] = test system: CD34 cells; experiment: HD-DoE 6-factor experiment optimized for maximum expression of GATA1; format: cell-based, human
Method: To test whether EPO or other commonly used cytokines are required for GATA1 induction, we conducted experiments with 6 factors in a range of concentrations. On this experiment CD34 cells were thawed and kept overnight in media containing SCF 10 ng/mL. On the next day, 48 different combinations of effectors were added to the cells, and SCF 5 ng/mL was kept in all the wells.

[7] = named factor removed, other four present

Molecule	GYPA expression ([1]; all five factors present)	HBA1 expression ([1]; all five factors present)	GYPA expression [1, 7]	HBA1 expression [1, 7]	factor contribution [2]	factor contribution [3]	GATA1 expression ([4]; all five factors present)	GATA1 expression [4, 7]	other results
NC(=O)c1ncn([C@@H]2O[C@H](CO)[C@@H](O)[C@H]2O)c1N [AICAR, reference compound]	337	689	256	569	9	–	–	–	–
C=C1C(=O)O[C@@H]2C[C@@]3(C)CCC[C@H](C)C3=C[C@H]12 [Alantolactone]	–	–	–	–	–	8	510	460	impact on GATA1 expression ([3]; 8-factor model, GATA1): supportive of GATA1 induction
NC1(c2ccc(-c3nc4ccn5c(=O)[nH]nc5c4cc3-c3ccccc3)cc2)CCC1 [MK2206]	–	–	–	–	–	17	510	400	–
CC(C)n1cnc2c(NCCc3ccc(O)cc3)nc(-c3csc4ccccc34)nc21 [SR1]	–	700	–	597	7	6	510	410	TFRC expression ([4]; all five factors present): 970; TFRC expression [4, 7]: 570
EPO: EPOR agonist, erythropoietin	345	700	61	285	31	–	–	–	GATA1 expression ([1]; all five factors present): 1386; TFRC expression ([1]; all five factors present): 2943; GATA1 expression [1, 7]: 736; TFRC expression [1, 7]: 898; HBA expression [5]: higher HBA expression; requirement for GATA1 induction ([6]; 6-factor model): not required for GATA1 induction
holotransferrin: Iron source	330	688	170	500	–	–	–	–	GATA1 expression ([1]; all five factors present): 1370; TFRC expression ([1]; all five factors present): 2883; GATA1 expression [1, 7]: 967; TFRC expression [1, 7]: 1703; HBA expression [5]: higher HBA expression
Activin A: a member of the TGFβ family (protein, UniProt P08476 311-426, looked up) Inhibin beta A chain: GLECDGKVNICCKKQFFVSFKDIGWNDWIIAPSGYHANYCEGECPSHIAGTSGSSLSFHSTVINHYRMRGHSPFANLKSCCVPTKLRPMSMLYYDDGQNIIKKDIQNMIVEECGCS	–	–	–	–	–	–	–	–	factor contribution ([6]; 6-factor model optimized for maximum GATA1 expression, SCF 5 ng/mL in all wells): 33
